# Data from BigSolDB 2.1.
smiles,measurement,setting,value
O=C1NC(=O)c2cc([N+](=O)[O-])ccc21,solubility (mole fraction),"in 1,4-dioxane, 283.15 K",0.0228
same,solubility (mole fraction),"in 1,4-dioxane, 285.65 K",0.0238
same,solubility (mole fraction),"in 1,4-dioxane, 288.15 K",0.0249
same,solubility (mole fraction),"in 1,4-dioxane, 293.15 K",0.0271
same,solubility (mole fraction),"in 1,4-dioxane, 295.65 K",0.0282
same,solubility (mole fraction),"in 1,4-dioxane, 298.15 K",0.0295
same,solubility (mole fraction),"in 1,4-dioxane, 303.15 K",0.0318
same,solubility (mole fraction),"in 1,4-dioxane, 305.65 K",0.0331
same,solubility (mole fraction),"in 1,4-dioxane, 308.15 K",0.0345
same,solubility (mole fraction),"in 1,4-dioxane, 313.15 K",0.0371
same,solubility (mole fraction),"in 1,4-dioxane, 315.65 K",0.0384
same,solubility (mole fraction),"in 1,4-dioxane, 318.15 K",0.0399
same,solubility (mole fraction),"in 1,4-dioxane, 323.15 K",0.0425
same,solubility (mole fraction),"in 2-butanone, 273.15 K",0.0161
same,solubility (mole fraction),"in 2-butanone, 275.65 K",0.0169
same,solubility (mole fraction),"in 2-butanone, 278.15 K",0.0177
same,solubility (mole fraction),"in 2-butanone, 283.15 K",0.0195
same,solubility (mole fraction),"in 2-butanone, 285.65 K",0.0205
same,solubility (mole fraction),"in 2-butanone, 288.15 K",0.0215
same,solubility (mole fraction),"in 2-butanone, 293.15 K",0.0234
same,solubility (mole fraction),"in 2-butanone, 295.65 K",0.0244
same,solubility (mole fraction),"in 2-butanone, 298.15 K",0.0256
same,solubility (mole fraction),"in 2-butanone, 303.15 K",0.0279
same,solubility (mole fraction),"in 2-butanone, 305.65 K",0.029
same,solubility (mole fraction),"in 2-butanone, 308.15 K",0.0302
same,solubility (mole fraction),"in 2-butanone, 313.15 K",0.0327
same,solubility (mole fraction),"in 2-butanone, 315.65 K",0.0339
same,solubility (mole fraction),"in 2-butanone, 318.15 K",0.0353
same,solubility (mole fraction),"in 2-butanone, 323.15 K",0.038
same,solubility (mole fraction),"in DMF, 273.15 K",0.0357
same,solubility (mole fraction),"in DMF, 275.65 K",0.039
same,solubility (mole fraction),"in DMF, 278.15 K",0.0425
same,solubility (mole fraction),"in DMF, 283.15 K",0.0497
same,solubility (mole fraction),"in DMF, 285.65 K",0.0535
same,solubility (mole fraction),"in DMF, 288.15 K",0.0586
same,solubility (mole fraction),"in DMF, 293.15 K",0.0682
same,solubility (mole fraction),"in DMF, 295.65 K",0.0732
same,solubility (mole fraction),"in DMF, 298.15 K",0.0789
same,solubility (mole fraction),"in DMF, 303.15 K",0.0912
same,solubility (mole fraction),"in DMF, 305.65 K",0.0976
same,solubility (mole fraction),"in DMF, 308.15 K",0.104
same,solubility (mole fraction),"in DMF, 313.15 K",0.12
same,solubility (mole fraction),"in DMF, 315.65 K",0.128
same,solubility (mole fraction),"in DMF, 318.15 K",0.137
same,solubility (mole fraction),"in DMF, 323.15 K",0.155
same,solubility (mole fraction),"in acetone, 273.15 K",0.0175
same,solubility (mole fraction),"in acetone, 275.65 K",0.0185
same,solubility (mole fraction),"in acetone, 278.15 K",0.0193
same,solubility (mole fraction),"in acetone, 283.15 K",0.0211
same,solubility (mole fraction),"in acetone, 285.65 K",0.022
same,solubility (mole fraction),"in acetone, 288.15 K",0.023
same,solubility (mole fraction),"in acetone, 293.15 K",0.025
same,solubility (mole fraction),"in acetone, 295.65 K",0.0261
same,solubility (mole fraction),"in acetone, 298.15 K",0.0271
same,solubility (mole fraction),"in acetone, 303.15 K",0.0293
same,solubility (mole fraction),"in acetone, 305.65 K",0.0305
same,solubility (mole fraction),"in acetone, 308.15 K",0.0317
same,solubility (mole fraction),"in acetone, 313.15 K",0.034
same,solubility (mole fraction),"in acetone, 315.65 K",0.0353
same,solubility (mole fraction),"in acetone, 318.15 K",0.0366
same,solubility (mole fraction),"in acetone, 323.15 K",0.0392
same,solubility (mole fraction),"in acetonitrile, 273.15 K",0.00359
same,solubility (mole fraction),"in acetonitrile, 275.65 K",0.00382
same,solubility (mole fraction),"in acetonitrile, 278.15 K",0.00403
same,solubility (mole fraction),"in acetonitrile, 283.15 K",0.00449
same,solubility (mole fraction),"in acetonitrile, 285.65 K",0.00474
same,solubility (mole fraction),"in acetonitrile, 288.15 K",0.00503
same,solubility (mole fraction),"in acetonitrile, 293.15 K",0.00555
same,solubility (mole fraction),"in acetonitrile, 295.65 K",0.00584
same,solubility (mole fraction),"in acetonitrile, 298.15 K",0.00618
same,solubility (mole fraction),"in acetonitrile, 303.15 K",0.00679
same,solubility (mole fraction),"in acetonitrile, 305.65 K",0.00709
same,solubility (mole fraction),"in acetonitrile, 308.15 K",0.00749
same,solubility (mole fraction),"in acetonitrile, 313.15 K",0.00822
same,solubility (mole fraction),"in acetonitrile, 315.65 K",0.00858
same,solubility (mole fraction),"in acetonitrile, 318.15 K",0.00894
same,solubility (mole fraction),"in acetonitrile, 323.15 K",0.00976
same,solubility (mole fraction),"in benzyl alcohol, 273.15 K",0.0134
same,solubility (mole fraction),"in benzyl alcohol, 275.65 K",0.0143
same,solubility (mole fraction),"in benzyl alcohol, 278.15 K",0.0154
same,solubility (mole fraction),"in benzyl alcohol, 283.15 K",0.0175
same,solubility (mole fraction),"in benzyl alcohol, 285.65 K",0.0188
same,solubility (mole fraction),"in benzyl alcohol, 288.15 K",0.0202
same,solubility (mole fraction),"in benzyl alcohol, 293.15 K",0.023
same,solubility (mole fraction),"in benzyl alcohol, 295.65 K",0.0245
same,solubility (mole fraction),"in benzyl alcohol, 298.15 K",0.0261
same,solubility (mole fraction),"in benzyl alcohol, 303.15 K",0.0294
same,solubility (mole fraction),"in benzyl alcohol, 305.65 K",0.0312
same,solubility (mole fraction),"in benzyl alcohol, 308.15 K",0.0331
same,solubility (mole fraction),"in benzyl alcohol, 313.15 K",0.0372
same,solubility (mole fraction),"in benzyl alcohol, 315.65 K",0.0393
same,solubility (mole fraction),"in benzyl alcohol, 318.15 K",0.0417
same,solubility (mole fraction),"in benzyl alcohol, 323.15 K",0.0466
same,solubility (mole fraction),"in chloroform, 273.15 K",0.000535
